Test results taken from paper PMC6337475, “Optimization of Sequence, Display, and Mode of Operation of IgG-Binding Peptide Ligands to Develop Robust, High-Capacity Affinity Adsorbents That Afford High IgG Product Quality” (International Journal of Molecular Sciences, 2019).
Non-standard residues stand in square brackets, D forms with d. No end group written: not given here. Cit = NC(=O)NCCC[C@H](N)C(=O)O

Columns and labels:
human polyclonal IgG = experiment: Batch adsorption isotherm (Langmuir fit); format: binding; conditions: peptide-TREN-WB resin, 0.1-12 mg/mL IgG in PBS pH 7.4, 2 h, room temperature, UV 280 nm
Experimental: The IgG-binding affinity of the ligand variants was initially measured via batch adsorption studies. Briefly, aliquots of peptide-TREN-WB resin were incubated with solutions of IgG in PBS in a range of concentration between 0.1 and 12 mg/mL; as the binding equilibrium was reached, the amount of IgG adsorbed on each resin aliquot was calculated based on the equilibrium concentration of IgG in solution, and the corresponding values were fitted to the Langmuir model: q=QmaxC/KD+C where in KD is the dissociation constant and Qmax the equilibrium binding capacity.
The adsorption of human polyclonal IgG by the HWRGWV-WB resins was measured at room temperature in a set of batch adsorption experiments. The resin was equilibrated with PBS, pH 7.4, and transferred into fritted tubes (50 µL of resin slurry per tube). Lyophilized IgG was dissolved in PBS, pH 7.4, at different concentrations ranging from 0.1 to 12 mg/mL. A volume of 1 mL of IgG solution was incubated with each of the resin aliquots for two hours, at room temperature, and under mild agitation. The supernatants were collected and quantified by UV-absorbance at 280 nm to determine the amount of IgG adsorbed by the resin and the corresponding equilibrium concentration of unbound IgG in solution, and the resulting data were fitted to a Langmuir isotherm.

[1] = system: CHO host cell proteins (HCPs); experiment: Host cell protein clearance (HCP ELISA) in IgG1 purification from CHO supernatant; design: species or system Chinese Hamster Ovary (CHO); conditions: for HCP LRV: elution 0.1 M Na-acetate pH 4.5, TREN-WB adsorbent
Experimental: (§1) Further, the chromatographic fractions were analyzed using a HCP ELISA kit and a Quant-IT Picogreen dsDNA assay kit to determine the levels of host cell proteins (HCPs) and DNA, respectively.
(§2) In this work, we have investigated the effect of pH of the elution buffer on the performance of HWRGWV-TREN-WB resin with a therapeutic monoclonal IgG1. Specifically, 0.1 M acetate buffer was used as a milder elution buffer (pH 4–5), while 0.1 M glycine HCl buffer was used for low pH elution (pH 2.5). The performance of the different buffers was evaluated in terms of HCP LRV in the eluted fraction, whose values are reported in Figure 5. The HCP clearance decreases at lower elution pH, which is however needed to ensure sufficient IgG yield. At pH 5, where a HCP LRV of 1.18 is obtained, only 75% of the bound IgG is eluted. […] Therefore, acetate buffer pH 4.5 was selected as elution buffer, as it offers the best combination of yield and purity.
The majority of CHO HCPs are acidic in nature and have an overall negative charge at the physiological conditions (PBS pH 7.4). Their non-specific binding to the positively charged ligand (the net charge of HWRGWV at pH 7 is +1.1) is likely of electrostatic nature. In order to lower the non-specific capture of HCPs, pre-elution wash conditions were optimized by exploring different compositions and pH values of the washing buffer. Specifically, the following conditions were utilized, 0.2 M sodium phosphate pH 6, 0.2 M sodium phosphate pH 7, PBS pH 7.4, 1 M NaCl in PBS at pH 7.4, and 0.1 M Tris HCl pH 9.
The host cell protein contents of the chromatographic fractions were determined using HCP ELISA kits from Cygnus Technologies (Southport, NC, USA). The high sensitivity protocol described by the manufacturer was used in the analysis. Briefly, the anti-CHO-coated microtiter wells were filled with 100 μL of standards and samples, and incubated on a rotator at 200 rpm for 1 h at room temperature. The wells were then washed three times with 300 μL washing buffer, and 100 μL of HRP-labeled anti-CHO antibody was added to each of the wells. After rinsing the wells, 100 μL of 3,3′,5,5′ tetramethyl benzidine (TMB) substrate solution was added to each well for 30 min at room temperature. The reaction was terminated by adding 100 μL of 0.5 M sulphuric acid. The amount of hydrolyzed substrate was measured by μQuant Microplate reader (BioTek Inc., Winooski, VT, USA) at 450 nm. A 4-parameter logistic fit was used to calculate the HCP (ng/mL) content in the chromatographic fractions. The HCP values determined in terms of ng/mL were converted into ng/mg of MAb to account for the dilution of fractions. The log reduction value (LRV) was determined as the log10 of the ratio of HCP in the load to the HCP in the elution fractions.

DNA = DNA clearance (Quant-IT PicoGreen) in IgG1 purification from CHO supernatant; design: species or system Chinese Hamster Ovary (CHO); conditions: washing buffer PBS, pH 7.4; elution 0.1 M Na-acetate pH 4.5; TREN-WB adsorbent
Experimental: as §1
The chromatographic fractions were first diafiltered against 10 mM Tris–HCl pH 7.5, using Amicon® centrifugal filters (3000 MWCO Millipore, Bedford, MA, USA). The DNA content in the fractions was determined by pico green assay using Quant-IT Picogreen dsDNA assay kit from Thermo Fisher Scientific (Philadelphia, PA, USA). Quantification was done as per the manufacturer’s protocol.

[2] = system: polyclonal human IgG (monomer and aggregates); experiment: Aggregate removal from heat-treated polyclonal IgG, SEC; conditions: 1 mg/mL IgG incubated 60 °C 10 min; PBS wash; elution pH 4.5; SEC (TSKgel G3000SW)
Experimental: The ability of HWRGWVC-TREN-WB to remove aggregates was further tested by using a polyclonal IgG solution. The formation of aggregates was induced by incubating a 1 mg/mL IgG solution at 60 °C for 10 min. The IgG solution containing aggregates was loaded onto the HWRGWVC-TREN-WB resin, followed by washing with PBS and elution at pH 4.5.
Further, a feed sample containing monomeric and aggregated polyclonal IgG was produced by incubating a 1 mg/mL solution of human IgG at 60 °C for 10 min. The solution was loaded onto the HWRGWVC-TREN-WB resin, followed by washing with PBS and elution at pH 4.5. The collected fractions were analyzed by size exclusion chromatography (SEC) using a TSKgel G3000SW column to determine the ratio of monomeric vs. aggregated IgG in both flow-through and elution fractions.

Fc region of IgG = conditions: cited from earlier work
Excerpt: Several chromatographic and non-chromatographic techniques have been proposed for the purification of Mabs, fc fusion proteins and bispecifics including efforts towards identifying alternatives to Protein A-based chromatography. While being regarded as the standard for antibody purification owing to their high affinity and selectivity, these ligands present limitations, including high cost and the potential release of immunogenic fragments. An additional issue with Protein A concerns the presence of antibody aggregates in eluted fraction and their poor selectivity ...

IgG = conditions: preliminary studies; cited from earlier work
Excerpt: In this work the peptide and peptide variants have been conjugated to Workbeads base resin at varying ligand densities ...

[3] = system: therapeutic monoclonal IgG1; experiment: Purification of monoclonal IgG1 from CHO cell culture supernatant: yield, loss and purity; conditions: SDS-PAGE
Experimental: To evaluate the effect of the spacer arm on the purity of the eluted product, the HWRGWV-WB adsorbents constructed with different spacer arms were utilized to purify a monoclonal IgG1 from a CHO cell culture supernatant. […] The collected fractions were analyzed by size exclusion chromatography to measure product yield (Table 2), and by SDS-PAGE to determine the overall product purity by densitometric analysis (Figure 4).
as §1, §2

Substance: HW[Cit]GWV
- Qmax (equilibrium binding capacity) (human polyclonal IgG): 49 mg·IgG/mL Adsorbent
- HCP LRV ([1]; washing buffer PBS, pH 7.4): 1.58
- DNA LRV (DNA): ~4

Substance: HWRGWV [tested as TREN-WB resin, coupled as HWRGWVC]
- Qmax (equilibrium binding capacity) (human polyclonal IgG): 85 mg·IgG/mL Adsorbent
- HCP LRV ([1]; washing buffer 0.1 M Tris HCl, pH 9): 1.39
- HCP removal during washing ([1]; washing buffer 0.2 M sodium phosphate at either pH 6 or 7): did not afford any HCP removal during washing
- HCP LRV ([1]; washing buffer 1 M NaCl in PBS, pH 7.4): 1.22
- HCP LRV ([1]; washing buffer PBS, pH 7.4): 1.04
- DNA LRV (DNA): ~4
- selective capture of monomeric IgG vs aggregates [2]: bind only monomeric IgG
- binding region on IgG (Fc region of IgG): binds the Fc region of IgG
- IgG binding capacity on agarose WorkBeads ACT (IgG): higher IgG binding capacity as compared to polymethcarylate base resin

Substance: HWRGWVC [peptide HWRGWV with C-terminal cysteine, conjugated through its thiol group to iodoacetyl-WB resin]
- loss of IgG in washing buffer ([3]; wash 0.1 M Tris HCl, pH 9): not observed
- loss of IgG in washing buffer ([3]; wash 1 M NaCl in PBS pH 7.4): minor loss of IgG in the washing buffer

Substance: Ac-HWRGWV [N-terminally acetylated variant of HWRGWV, tested as TREN-WB resin]
- Qmax (equilibrium binding capacity) (human polyclonal IgG): 72 mg·IgG/mL Adsorbent
- HCP LRV ([1]; washing buffer PBS, pH 7.4): 1.38
- DNA LRV (DNA): ~4
